# Experimental data reported in PubChem BioAssay (NCI).
#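 Protocol summary: plate cells (96-well), add compound at 5 concentrations, incubate 48 h, interpolate endpoints linearly. GI50: concentration for 50% inhibition of growth. Definition used: TGI = concentration required for complete inhibition of growth.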
# Key:
# Assay in all cases: NCI anticancer screen, dose series, 48 h
# 786-0 renal = test system: 786-0 renal
# A498 renal = test system: A498 renal
# A549 NSCLC = test system: A549 NSCLC
# ACHN renal = test system: ACHN renal
# BT-549 breast = test system: BT-549 breast
# CAKI-1 renal = test system: CAKI-1 renal
# CCRF-CEM leukemia = test system: CCRF-CEM leukemia
# COLO 205 colon = test system: COLO 205 colon
# DU-145 prostate = test system: DU-145 prostate
# HCC-2998 colon = test system: HCC-2998 colon
# HCT-116 colon = test system: HCT-116 colon
# HCT-15 colon = test system: HCT-15 colon
# HL-60(TB) leukemia = test system: HL-60(TB) leukemia
# HOP-62 NSCLC = test system: HOP-62 NSCLC
# HOP-92 NSCLC = test system: HOP-92 NSCLC
# HS 578T breast = test system: HS 578T breast
# HT29 colon = test system: HT29 colon
# IGROV1 ovarian = test system: IGROV1 ovarian
# K-562 leukemia = test system: K-562 leukemia
# KM12 colon = test system: KM12 colon
# LOX IMVI melanoma = test system: LOX IMVI melanoma
# M14 melanoma = test system: M14 melanoma
# MALME-3M melanoma = test system: MALME-3M melanoma
# MCF7 breast = test system: MCF7 breast
# MDA-MB-231 breast = test system: MDA-MB-231 breast
# MDA-MB-435 = test system: MDA-MB-435
# MOLT-4 leukemia = test system: MOLT-4 leukemia
# NCI-H23 lung = test system: NCI-H23 lung
# NCI-H460 lung = test system: NCI-H460 lung
# NCI-H522 lung = test system: NCI-H522 lung
# OVCAR-3 ovarian = test system: OVCAR-3 ovarian
# OVCAR-4 ovarian = test system: OVCAR-4 ovarian
# OVCAR-5 ovarian = test system: OVCAR-5 ovarian
# OVCAR-8 ovarian = test system: OVCAR-8 ovarian
# PC-3 prostate = test system: PC-3 prostate
# RPMI-8226 leukemia = test system: RPMI-8226 leukemia
# RXF 393 renal = test system: RXF 393 renal
# SF-268 CNS = test system: SF-268 CNS
# SF-295 CNS = test system: SF-295 CNS
# SF-539 CNS = test system: SF-539 CNS
# SK-MEL-2 melanoma = test system: SK-MEL-2 melanoma
# SK-MEL-28 melanoma = test system: SK-MEL-28 melanoma
# SK-MEL-5 melanoma = test system: SK-MEL-5 melanoma
# SK-OV-3 ovarian = test system: SK-OV-3 ovarian
# SN12C renal = test system: SN12C renal
# SNB-19 CNS = test system: SNB-19 CNS
# SNB-75 CNS = test system: SNB-75 CNS
# SR leukemia = test system: SR leukemia
# SW-620 colon = test system: SW-620 colon
# T-47D breast = test system: T-47D breast
# TK-10 renal = test system: TK-10 renal
# U251 CNS = test system: U251 CNS
# UACC-257 melanoma = test system: UACC-257 melanoma
# UACC-62 melanoma = test system: UACC-62 melanoma
# UO-31 renal = test system: UO-31 renal
structure (smiles),measurement,setting,value
Nc1nc(Nc2ccc3c(c2)CCC(N2CCCC2)CC3)nn1-c1cc2c(nn1)-c1ccccc1CCC2 (stereo not given),GI50,786-0 renal,1100 nM
same,TGI,786-0 renal,2490 nM
same,GI50,A498 renal,274 nM
same,TGI,A498 renal,1240 nM
same,GI50,A549 NSCLC,1320 nM
same,TGI,A549 NSCLC,2920 nM
same,GI50,ACHN renal,346 nM
same,TGI,ACHN renal,1590 nM
same,GI50,BT-549 breast,1520 nM
same,TGI,BT-549 breast,3010 nM
same,GI50,CAKI-1 renal,531 nM
same,TGI,CAKI-1 renal,2050 nM
same,GI50,CCRF-CEM leukemia,1240 nM
same,TGI,CCRF-CEM leukemia,4670 nM
same,GI50,COLO 205 colon,1560 nM
same,TGI,COLO 205 colon,3110 nM
same,GI50,DU-145 prostate,1040 nM
same,TGI,DU-145 prostate,2360 nM
same,GI50,HCC-2998 colon,1550 nM
same,TGI,HCC-2998 colon,2970 nM
same,GI50,HCT-116 colon,754 nM
same,TGI,HCT-116 colon,2020 nM
same,GI50,HCT-15 colon,839 nM
same,TGI,HCT-15 colon,2140 nM
same,GI50,HL-60(TB) leukemia,1010 nM
same,TGI,HL-60(TB) leukemia,2750 nM
same,GI50,HOP-62 NSCLC,1500 nM
same,TGI,HOP-62 NSCLC,3110 nM
same,GI50,HOP-92 NSCLC,234 nM
same,TGI,HOP-92 NSCLC,1690 nM
same,GI50,HS 578T breast,1080 nM
same,TGI,HS 578T breast,3660 nM
same,GI50,HT29 colon,667 nM
same,TGI,HT29 colon,2600 nM
same,GI50,IGROV1 ovarian,455 nM
same,TGI,IGROV1 ovarian,1810 nM
same,GI50,K-562 leukemia,701 nM
same,TGI,K-562 leukemia,2480 nM
same,GI50,KM12 colon,1020 nM
same,TGI,KM12 colon,2730 nM
same,GI50,LOX IMVI melanoma,1340 nM
same,TGI,LOX IMVI melanoma,2690 nM
same,GI50,M14 melanoma,957 nM
same,TGI,M14 melanoma,2270 nM
same,GI50,MALME-3M melanoma,1420 nM
same,TGI,MALME-3M melanoma,3090 nM
same,GI50,MCF7 breast,1350 nM
same,TGI,MCF7 breast,2790 nM
same,GI50,MDA-MB-231 breast,1460 nM
same,TGI,MDA-MB-231 breast,3040 nM
same,GI50,MDA-MB-435,1320 nM
same,TGI,MDA-MB-435,2740 nM
same,GI50,MOLT-4 leukemia,681 nM
same,TGI,MOLT-4 leukemia,2860 nM
same,GI50,NCI-H23 lung,1710 nM
same,TGI,NCI-H23 lung,3720 nM
same,GI50,NCI-H460 lung,1080 nM
same,TGI,NCI-H460 lung,2630 nM
same,GI50,NCI-H522 lung,1710 nM
same,TGI,NCI-H522 lung,3270 nM
same,GI50,OVCAR-3 ovarian,1400 nM
same,TGI,OVCAR-3 ovarian,2930 nM
same,GI50,OVCAR-4 ovarian,1150 nM
same,TGI,OVCAR-4 ovarian,2560 nM
same,GI50,OVCAR-5 ovarian,1390 nM
same,TGI,OVCAR-5 ovarian,2760 nM
same,GI50,OVCAR-8 ovarian,1140 nM
same,TGI,OVCAR-8 ovarian,2850 nM
same,GI50,PC-3 prostate,629 nM
same,TGI,PC-3 prostate,2140 nM
same,GI50,RPMI-8226 leukemia,1400 nM
same,TGI,RPMI-8226 leukemia,3810 nM
same,GI50,RXF 393 renal,631 nM
same,TGI,RXF 393 renal,1870 nM
same,GI50,SF-268 CNS,1250 nM
same,TGI,SF-268 CNS,3070 nM
same,GI50,SF-295 CNS,1850 nM
same,TGI,SF-295 CNS,3540 nM
same,GI50,SF-539 CNS,787 nM
same,TGI,SF-539 CNS,2100 nM
same,GI50,SK-MEL-2 melanoma,1040 nM
same,TGI,SK-MEL-2 melanoma,2530 nM
same,GI50,SK-MEL-28 melanoma,1610 nM
same,TGI,SK-MEL-28 melanoma,3010 nM
same,GI50,SK-MEL-5 melanoma,1450 nM
same,TGI,SK-MEL-5 melanoma,2780 nM
same,GI50,SK-OV-3 ovarian,895 nM
same,TGI,SK-OV-3 ovarian,2220 nM
same,GI50,SN12C renal,378 nM
same,TGI,SN12C renal,1810 nM
same,GI50,SNB-19 CNS,1600 nM
same,TGI,SNB-19 CNS,3400 nM
same,GI50,SNB-75 CNS,792 nM
same,TGI,SNB-75 CNS,2180 nM
same,GI50,SR leukemia,420 nM
same,TGI,SR leukemia,2370 nM
same,GI50,SW-620 colon,1310 nM
same,TGI,SW-620 colon,3170 nM
same,GI50,T-47D breast,1750 nM
same,TGI,T-47D breast,3950 nM
same,GI50,TK-10 renal,1140 nM
same,TGI,TK-10 renal,2610 nM
same,GI50,U251 CNS,1090 nM
same,TGI,U251 CNS,2390 nM
same,GI50,UACC-257 melanoma,1700 nM
same,TGI,UACC-257 melanoma,3360 nM
same,GI50,UACC-62 melanoma,1500 nM
same,TGI,UACC-62 melanoma,3070 nM
same,GI50,UO-31 renal,668 nM
same,TGI,UO-31 renal,2130 nM
